How the values were obtained:
[1] = tested on: primary TM cells embedded in collagen gel; assay: collagen gel embedded expansion and/or contraction assay; type: cell-based, human; conditions: 10 pmole lipid, collagen column length at 24 hours
Method: About 10,000 primary TM cells were placed in a capillary tube with rat collagen without (control) or after treatment with 10 pmole of indicated lipid. The change in collagen column length was measured at the end of 24 hours. Mean and standard deviation from three independent experiments are presented. As shown by yellow/gray zones, the expansions were categorized into four zones (2, 3 and 4 are identified), 1=[…]; 2=1.0 to 1.4 mm; 3=>1.4 mm but <2.0 mm; 4=2.0 and >2.0 mm.
Properties of cell ensembles in embedded matrix and assembled layer of cells on filter membranes. Gel embedded primary TM cells in collagen matrix in capillary tubes were prepared following established protocols (Ilagan, R. et al. Biotechniques. 2010; 48: 153-5), and their ability within the first 24 hours for expansion or contraction of gels (control) or the cells which were subjected to treatment with lipids for 1 hour in serum free medium prior to gel embedding were determined. Lipids that modulate cell expansion in matrix embedded assay systems (FIG. 3) were found. […] The extent of expansion was divided into four zones 1, 2, 3, and 4 (FIG. 3). The higher the number, the greater is the expansion.
Collagen gel expansion and/or contraction assay: Hydro-gel solution was prepared using 10× MEM (cat #11430, Invitrogen), Sodium Bicarbonate (cat #55761 Sigma-Aldrich), L-Glutamine (Sigma-Aldrich), HEPES (cat #15630, Invitrogen). The following solution was aliquoted in separate tubes for each transfection type. Transfection complexes were prepared in individual tubes containing a mixture of the transfection agent (Lipofectamine 2000, Invitrogen) and desired DNA vectors in a ratio of 0.4 ug/uL, following the manufacturer's preparation guidelines. Trabecular meshwork cells were obtained from a confluent layer of trypsin-treated 25 cm^2 cell culture flask (cat #353109, Becton Dickinson, Franklin Lakes, N.J.) sedimented for 5 minutes at 800 RPM. Cell pellet was then re-suspended in serum free DMEM 1×, (Mediatech) media, thoroughly mixed and finally, equally aliquoted into each respective transfection-complex containing vessel. The reaction was allowed to occur for 45 minutes, after which it was terminated through addition of cell culture media and rat tail collagen (cat #354249, BD, San Jose, Calif.) to initiate gel polymerization. The suspension was gently mixed by aspiration and aspirated into 1 mL single use needle syringe and injected into a borosilicate glass capillary (O.D −1.0 mm, IN.D −0.75 mm) (cat #TW100-6, WPI) to approximately half of its volume. A digital picture snapshot was taken of all capillaries prepared against a blank background with a millimeter scale, repeated at 24 and 48 hours. The hydro-gel containing capillaries were incubated inside a moisture chamber to prevent dehydration in a cell line incubator at 37° C. and 5% CO2. Photographs obtained were analyzed using ImageJ (v.1.43u) measuring between chosen points on the opposite ends of the gel. Amassed length data was statistically analyzed using Microsoft Excel (XP).

DBA/2J mice = assay: IOP lowering after topical application in DBA/2J mice; type: in vivo, mouse; conditions: DBA/2J mice, topical 10 pmole in 5% DMSO, once daily
Method: The right eye was treated with vehicle alone and left eye treated with lipid. Control had both eyes treated with vehicle. A. In DBA/2J mice the indicated lipid in vehicle or control (vehicle only) were administered one daily at around 7.5 months of age in mice which were noted to have a IOP≥18 mm of Hg (20% increase from an average baseline of 15 mm of Hg was employed as treatment point). The average IOP recordings are shown for indicated lipids. B. A 10 picomole each of six PC (13:0/13:0; PE (18:0/18:0), Lyso-PS 18:0, PS 18:1, Sphinganine and C17S1P) were combined and applied as a topical dose once daily for up to 7 days on DBA/2J mouse eyes in 5% DMSO (vehicle). […] Transgenic myocillin mice [Tg-MYOC(Y437H)] subjected to a topical dose of indicated lipids as noted above (FIG. 5C). The IOP lowering compared to control was noted on day 4 and 6 as shown.
Intraocular pressure lowering in mouse models. The endogenous lipids lowered IOP in a DBA/2J mouse model of glaucoma (FIG. 5A). DBA/2J is the only known mouse animal where elevation of IOP occur spontaneously. Although this mouse also suffers from pigmentary dispersion, however, elevation of IOP appears not to correlate with […]. The lipids as indicated were applied as a topical dose (10 pmole in 5% DMSO as vehicle). The 5% DMSO only vehicle served as a control (FIG. 5A). […] A 10 picomole each of six PC (13:0/13:0; PE (18:0/18:0), Lyso-PS 18:0, PS 18:1, Sphinganine, and C17S1P) were combined and applied as a topical dose once daily for up to 7 days on DBA/2J mouse eyes in 5% DMSO (vehicle) (in other words, 10 picomoles of each PC was included). […] In addition to the DBA/2J model described here, these endogenous lipids lowered IOP in cochlin and connective tissue growth factor (CTGF) over-expression models. […] Thus the endogenous lipids assessed here lowered IOP in vastly different DBA/2J and MYOC(Y437H) mouse models as well as in cochlin and CTGF overexpression models covering a broad swath of four rodent glaucoma models that encompass induced as well as spontaneous IOP elevation.
Topical application of lipids and measurement of IOP: The lipids were topically applied as 1 μl drops with 10 pmole lipids. Pressure was measured with a tonolab (Colonial
Medical Supplies, N.H.) or with an assembled cannulation device, used in our laboratory. An initial assessment had utilized 10% DMSO as vehicle. However, all data reported here utilized 5% DMSO.

[2] = tested on: normotensive cynomolgus monkeys; assay: IOP and slit lamp examination in normotensive cynomolgus monkeys after topical lipid; type: in vivo
Method: Lipids were topically administered in 1 μl volume around ˜1 pm in the afternoon. The right eye was treated with vehicle alone, and the left eye was treated with lipid. The cynomolgus monkeys (n=4) were treated with […] lipid (except C17S1P which was 50 nM) for 5 days. Monkeys were subjected to slit lamp examination and IOP measurement prior to and after treatment. The IOP measured 3-6 hours post-treatment on the fifth day of treatment is depicted as solid bars. The hollow bars are control (vehicle only (5% DMSO)).
Experimental design: The IOP-reducing activity of six lipids was tested in the eyes of cynomolgus monkeys (n=4 animals for each lipid). Baseline slit lamp biomicroscopic examination (SLE) and IOP for each group of animals was measured prior to topical application of lipids. The SLE and IOP were then measured at 3-6 hours posttreatment. One eye of each monkey received topical application with the lipid suspended in vehicle (1% dimethylsulfoxide (DMSO)), and the contralateral eye was treated with vehicle only. All topical applications contained 10 picomole of lipid (except C17S1P, which was 50 nM). […] The IOP was measured using a minified Goldmann applanation tonometer.

CCCCC/C=C\C/C=C\C/C=C\C/C=C\CCCC(=O)O[C@H](COC(=O)CCCCCCCCCCCCCCCCC)COP(=O)(O)OC1[C@H](O)[C@H](O)C(O)[C@H](O)[C@H]1O (some centres unmarked) [PI(18:0/20:4)5Z,8Z,11Z,14Z))]
gel expansion/contraction of cells in artificial embedment [1]: showed an effect | lowering of IOP (DBA/2J mice): lowering of IOP

CCCCCCCCCCCCC(=O)OC[C@H](COP(=O)([O-])OCC[N+](C)(C)C)OC(=O)CCCCCCCCCCCC [PC(13:0/13:0), 1,2-ditridecanoyl-sn-glycero-3-phosphocholine, reference compound]
gel expansion/contraction of cells in artificial embedment [1]: lack of any effect | lowering of IOP (DBA/2J mice): not

CCCCCCCCCCCCCC[C@@H](O)[C@@H](N)COP(=O)(O)O [C17 Sphinganine-1-phosphate]
gel expansion/contraction of cells in artificial embedment [1]: showed an effect | lowering of IOP (DBA/2J mice): lowering of IOP | IOP reduction ([2]; topical 10 picomole (C17S1P 50 nM), 5 days, IOP 3-6 hours post-treatment): reduced IOP significantly | adverse side effects or toxicity ([2]; topical, slit lamp examination): without additional adverse side effects or toxicity

CCCC/C=C\C/C=C\CCCCCCCC(=O)O[C@H](COC(=O)CCCCCCCCCCC)COP(=O)(O)OC1C(O)C(O)C(O)[C@@H](O)C1O (some centres unmarked) [PI(12:0/17:2)9Z,12Z))]
gel expansion/contraction of cells in artificial embedment [1]: showed an effect | lowering of IOP (DBA/2J mice): lowering of IOP

CCCCCCCCCCCCCC(=O)OC[C@@H](O)COP(=O)(O)OC[C@H](N)C(=O)O [PS(14:0/0:0)]
gel expansion/contraction of cells in artificial embedment [1]: showed an effect | lowering of IOP (DBA/2J mice): lowering of IOP

CCCCCCCCCCCCCCC[C@@H](O)[C@@H](N)CO [Sphinganine]
gel expansion/contraction of cells in artificial embedment [1]: showed an effect | lowering of IOP (DBA/2J mice): lowering of IOP

CCCCCCCC/C=C\CCCCCCCCCCCCCCCC(=O)N[C@@H](CO)[C@H](O)/C=C/CCCCCCCCCCCCC [Cer(d18:1/26:1(17Z))]
gel expansion/contraction of cells in artificial embedment [1]: showed an effect | lowering of IOP (DBA/2J mice): lowering of IOP

CCCCCCCCCCCCCCCCCC(=O)OC[C@@H](O)COP(=O)(O)OC[C@H](N)C(=O)O [PS(18:0/0:0)]
gel expansion/contraction of cells in artificial embedment [1]: showed an effect | lowering of IOP (DBA/2J mice): lowering of IOP

CCCC/C=C\CCCCCCCC(=O)O[C@H](COC(=O)CCCCCCCCCCC)COP(=O)([O-])OCC[N+](C)(C)C [PC(12:0/14:1(9Z))]
gel expansion/contraction of cells in artificial embedment [1]: lack of any effect | lowering of IOP (DBA/2J mice): not

CCCCCCCCCCCCCCCCCC(=O)OC[C@H](COP(=O)(O)OCCN)OC(=O)CCCCCCCCCCCCCCCCC [PE(18:0/18:0)]
gel expansion/contraction of cells in artificial embedment [1]: showed an effect | lowering of IOP (DBA/2J mice): lowering of IOP

CCCCCCCCCCC/C=C/[C@@H](O)[C@H](COP(=O)([O-])OCC[N+](C)(C)C)NC(=O)CCCCCCCCCCCCCCCCCCCCCCCC [SM(d16:1/25:0)]
gel expansion/contraction of cells in artificial embedment [1]: showed an effect | lowering of IOP (DBA/2J mice): lowering of IOP

CCCCCCCC/C=C\CCCCCCCC(=O)N[C@@H](CO)[C@H](O)CCCCCCCCCCCCCCC [Cer(d18:0/18:1(9Z))]
gel expansion/contraction of cells in artificial embedment [1]: showed an effect | lowering of IOP (DBA/2J mice): lowering of IOP

— patent US10046001B2, “Compositions and methods for reducing intraocular pressure” (UNIVERSITY OF MIAMI, priority 2013, dated 2018)
